Read-outs that look alike come from different tables or passages of the source.
Assays:
[1] = test system: E. coli
Excerpt: In the present disclosure, the term “sublethal concentration” refers to a concentration that affects the growth of the bacteria but is not enough to cause bacterial death. The concentration may vary and be determined depending on the particular ROS, bacteria, and/or culture medium employed. In one embodiment of the present disclosure, the sublethal concentration is defined as a minimum concentration at which the growth rate of bacteria remains constant until 1 hr after the treatment with ROS, which begin to decrease 2 hrs after the treatment with ROS.
H2O2 was used as ROS, which was prepared by 1:2 serial dilution.

[2] = test system: E. coli; settings: E. coli cultured in liquid medium with sub-lethal dose of hydrogen peroxide (FIG. 2)
Method: Bacteria Imaging. The bacterial morphologies were observed under a laser scanning microscope using ZEN software. (Zeiss LSM 700). For sampling, 5˜10 ul of the bacteria was dropped on a glass slide and covered with a coverslip. After 20 min of drying in a fume hood, the bacteria were observed using a 100× objective lens. When the bacteria were cultured using a glass-bottom 96-well black plate (Ibidi #89626), the bacteria were fixed with cold acetone and blocked with 1% BSA in PBST for 30 min.
(§1) The serially diluted phage solution was plated to a solid medium containing sublethal dose of H2O2 by using a double agar overlay and the number of phages was counted.

[3] = test system: bacteriophage T4 in E. coli K12 (MG1655)
Method: E. coli K12 (MG1655) was cultured overnight. The overnight culture was inoculated at 1:100 (vol:vol) ratio to a 10 ml LB broth in a 50 ml tube and incubated for 1 hr to prepare a fresh culture. When the E. coli K12 strain reached an OD600 of 0.3, H2O2 was added at a final concentration of 4.5 mM and incubated further for 1 hr until OD600 of 0.5˜0.7.
Then T4 was added at a multiplicity of infection (MOI) of 0.001 and incubated further for 5 min at 37° C. in a shaking incubator to allow for phage adsorption. Then the culture was centrifuged at 12,000 rmp for 5 min and the supernatant was removed. Ten ml of fresh LB broth was added to the pellet and resuspended. When the resuspension was completed, which was set to 0 min, the resuspend culture was incubated at a 37° Crotary incubator at 0 min, and 500 μl of the culture was taken at 5 minute intervals. Each of the culture was then plated by a double agar overlay and the number of phages were counted.

[4] = test system: bacteriophage T4 on E. coli; settings: solid medium, sub-lethal dose of hydrogen peroxide
Method: Phage plaque size measurement. Phage plaques were allowed to form on a bacterial lawn and the size measured using a digital caliper.
as §1

[5] = 4.5 mM H2O2, liquid medium, T4 at MOI 0.001 (FIG. 3)

For `OO` [H2O2, hydrogen peroxide], the sublethal concentration ([1]; liquid medium (FIG. 1)) was 4.5 mM, the sublethal concentration ([1]; solid medium) was 0.2 mM and the “bacterial morphology (filamentation, bacterial length)” value [2] was “bacterial filamentation was clearly observed”. The “bacterial morphology (filamentation, bacterial length)” value ([2]; listed as hydrogen peroxide) was “Increase in bacterial length due to bacterial filamentation”, the “delay of the start of the burst compared to the control” value [3, 5] was 5 min and the “increase of the size of the burst compared to the control” value [3, 5] was 6 times. For the same compound, the phage production ([3]; sublethal dose of H2O2) was “increase in the phage production was clearly observed” and the “increase of plaque size (diameter) compared to the control” value [4] was “at least 5 times”.
